Results from patent US20060014723A1, “Anti-parasitic uses of borinic acid complexes” (priority 2004, published 2006).
Converted amounts (≈) assume the structure as drawn.

Columns and labels:
[1] = tested on: P. falciparum K1; test: Malaria in vitro screening model (3H-hypoxanthine incorporation); type: cell-based, Plasmodium falciparum
Outline: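 Chloroquine/pyrimethamine-resistant P. falciparum K1 in human A+ erythrocytes (0.15% parasitemia, 2.5% hematocrit) was exposed to seven 2-fold compound dilutions in hypoxanthine-free medium at 37 °C, low O2. After 48 h, 0.5 μCi ³H-hypoxanthine was added for 24 h more. IC50 was taken from sigmoidal curves as % of untreated control.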

[2] = tested on: T. b. rhodesiense STIB 900; test: African sleeping sickness in vitro screening model (Alamar Blue); type: cell-based, Trypanosoma brucei rhodesiense
Outline: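 Bloodstream-form trypomastigotes, 8×10^3/well, were grown in supplemented MEM with 15% horse serum, without hypoxanthine, at 37 °C in 5% CO2. They were exposed for 72 h to seven 3-fold dilutions from 90 to 0.123 μg/mL. Resazurin (Alamar Blue) was added for 2 h, fluorescence read at ex 536/em 588 nm, and IC50 taken as the mean of four values.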

Row | Compound | P. falciparum IC50 [1] | T. b. rhodesiense IC50 [2] | IC50 ([1]; Plasmodium falciparum, K1) | IC50 ([2]; Trypanosoma brucei)
1 | CC1(C)COC(c2cccc(B(Oc3cccc4cccnc34)c3cccc(C4=NC(C)(C)CO4)c3)c2)=N1 [Compound 13, Bis[3-(4,5-dihydro-4,4-dimethyloxazol-2-yl)phenyl]borinic acid 8-hydroxyquinoline ester] | 2 µg/mL | 0.5 µg/mL |  | 
2 | COc1ccc(B(Oc2cccc3cccnc23)c2cccc(Cl)c2)cc1OC [Compound 27, (3-Chlorophenyl)(3,4-dimethoxyphenyl)borinic acid quinolin-8-yl ester] |  |  | 1.7 µg/mL (≈ 4.21 µM) | 0.52 µg/mL (≈ 1.29 µM)
